Experimental data as given in ChEMBL document CHEMBL6109134, “Discovery of AMG 193, an MTA-Cooperative PRMT5 Inhibitor for the Treatment of MTAP-Deleted Cancers” (J Med Chem, 2025).
pIC50: −log10 of the molar value. Converted amounts (≈) assume the structure as drawn. The source made the active and inactive calls. The calls are words filed in the database; no cut-off is given here.

What was measured:
BXPC-3 [1] = assay: Antiproliferative activity against human BXPC-3 cells assessed as effect on cell viability; type: functional, cell-based
BXPC-3 [2] = assay: Antitumor activity against MTAP-deleted human BXPC-3 cells xenografted in athymic nude mouse model assessed as tumor growth inhibition at 100 mg/kg, po administered once daily for 26 days and measured 24 hrs post last dose relative to control; type: functional; details: BXPC-3, 648 h, time 27 day, read-out: TGI
BXPC-3 [3] = assay: Antitumor activity against MTAP-deleted human BXPC-3 cells xenografted in athymic nude mouse model assessed as tumor growth inhibition at 10 mg/kg, po administered once daily for 26 days and measured 24 hrs post last dose relative to control; type: functional; details: BXPC-3, 648 h, time 27 day, read-out: TGI
[4] = Metabolic stability in mouse liver microsomes assessed as intrinsic clearance at 0.5 uM incubated for 40 mins in presence of NADPH; type: ADME, Microsome; details: read-out: CLH
[5] = biological target: Protein arginine N-methyltransferase 5 (Homo sapiens) (UniProt O14744); assay: In vivo inhibition of PRMT5 in athymic nude mouse xenografted with human HCT-116 cells harboring wildtype MTAP assessed as decrease in SDMA level in tumor at 30 mg/kg, po administered once daily for 4 days and measured 4 hrs post last dose by ELISA relative to control; type: functional, organism-based; details: time 4.0 day
[6] = biological target: Protein arginine N-methyltransferase 5 (Homo sapiens) (UniProt O14744); assay: In vivo inhibition of PRMT5 in athymic nude mouse xenografted with MTAP-deleted human HCT-116 cells assessed as decrease in SDMA level in tumor at 30 mg/kg, po administered once daily for 4 days and measured 4 hrs post last dose by ELISA relative to control; type: functional, organism-based; details: time 4.0 day
[7] = Metabolic stability in rat liver microsomes assessed as intrinsic clearance; type: ADME, Microsome; details: time 40 min, read-out: CLH
[8] = Metabolic stability in human liver microsomes assessed as intrinsic clearance at 0.5 uM incubated for 40 mins in presence of NADPH; type: ADME, Microsome; details: read-out: CLH
[9] = Unbound CSF-to-plasma concentration ratio in female Sprague-Dawley rat at 75 mg/kg, po administered as single dose; type: ADME, organism-based
Cytochrome P450 3A4 = Cytochrome P450 3A4 (Homo sapiens, UniProt P08684); assay: Inhibition of CYP3A4 (unknown origin)
[10] = Unbound brain-to-plasma concentration ratio in male Sprague-Dawley rat at 25 mg/kg, po administered as single dose; type: ADME, organism-based; details: read-out: K(p,uu,brain)
Cytochrome P450 2D6 = Cytochrome P450 2D6 (Homo sapiens, UniProt P10635); assay: Inhibition of CYP2D6 (unknown origin)
[11] = Unbound brain-to-plasma concentration ratio in female Sprague-Dawley rat at 25 mg/kg, po administered as single dose; type: ADME, organism-based; details: read-out: K(p,uu,brain)
[12] = Metabolic stability in human hepatocytes assessed as intrinsic clearance measured per 10^6 cells; type: ADME, cell-based, Hepatocyte; details: read-out: CLH
HCT-116 [13] = assay: Antitumor activity against MTAP-deleted human HCT-116 cells xenografted in female athymic nude mouse model assessed as tumor growth inhibition at 100 mg/kg, po administered once daily for 14 days relative to control; type: functional; details: HCT-116, 336 h, time 14 day, read-out: TGI
[14] = Solubility of compound in PBS buffer at pH 7.4
[15] = Drug uptake in plasma of athymic nude mouse xenografted with MTAP-deleted human BXPC-3 cells at 10 to 100 mg/kg, po administered once daily for 26 days and measured 24 hrs post last dose by LC-SRM/MS analysis; type: ADME, organism-based; details: in vivo, 648 h, dose 10-100 mg/kg, time 27 day
[16] = Unbound brain-to-plasma concentration ratio in male Sprague-Dawley rat at 75 mg/kg, po administered as single dose; type: ADME, organism-based; details: read-out: K(p,uu,brain)
HCT-116 [17] = assay: Antiproliferative activity against human HCT-116 cells harboring wildtype MTAP assessed as effect on cell viability incubated for 6 days by Celltiter-Glo luminescent cell viability assay; type: functional, cell-based; details: HCT-116, 144 h
[18] = Protein binding in human plasma assessed as unbound fraction by ultracentrifugation
HCT-116 [19] = assay: Antitumor activity against MTAP-deleted human HCT-116 cells xenografted in female athymic nude mouse model assessed as tumor growth inhibition at 10 mg/kg, po administered once daily for 14 days relative to control; type: functional; details: HCT-116, 336 h, time 14 day, read-out: TGI
[20] = biological target: T1, Voltage-gated inwardly rectifying potassium channel KCNH2 (Homo sapiens, UniProt Q12809); assay: Inhibition of human ERG by QPatch clamp method
[21] = Metabolic stability in rat hepatocytes assessed as intrinsic clearance measured per 10^6 cells; type: ADME, cell-based, Hepatocyte; details: read-out: CLH
[22] = Protein binding in dog plasma assessed as unbound fraction by ultracentrifugation
[23] = Solubility of compound in SIF at pH 6.8
[24] = biological target: Protein arginine N-methyltransferase 5 (Homo sapiens) (UniProt O14744); assay: In vivo inhibition of PRMT5 in female athymic nude mouse xenografted with MTAP-deleted human U-87 MG cells assessed as decrease in SDMA level in tumor at 30 mg/kg, po administered once daily for 14 days and measured 2 to 8 hrs post last dose by ELISA relative to control; type: functional, organism-based; details: time 338-344 hrs
HCT-116 [25] = assay: Antitumor activity against MTAP-deleted human HCT-116 cells xenografted in female athymic nude mouse model assessed as tumor growth inhibition at 3 mg/kg, po administered once daily for 14 days relative to control; type: functional; details: HCT-116, 336 h, time 14 day, read-out: TGI
[26] = Metabolic stability in dog hepatocytes assessed as intrinsic clearance measured per 10^6 cells; type: ADME, cell-based, Canis lupus familiaris, Hepatocyte; details: read-out: CLH
[27] = biological target: T1, Voltage-gated inwardly rectifying potassium channel KCNH2; assay: Inhibition of human ERG by binding assay
[28] = Clearance in Sprague-Dawley rat at 0.5 mg/kg, iv; details: in vivo
[29] = biological target: Protein arginine N-methyltransferase 5 (Homo sapiens) (UniProt O14744); assay: In vivo inhibition of PRMT5 in athymic nude mouse xenografted with MTAP-deleted human HCT-116 cells assessed as decrease in SDMA level in tumor at 3 mg/kg, po administered once daily for 4 days and measured 4 hrs post last dose by ELISA relative to control; type: functional, organism-based; details: time 4.0 day
[30] = biological target: Protein arginine N-methyltransferase 5 (Homo sapiens) (UniProt O14744); assay: In vivo inhibition of PRMT5 in athymic nude mouse xenografted with human HCT-116 cells harboring wildtype MTAP assessed as decrease in SDMA level in tumor at 10 mg/kg, po administered once daily for 4 days and measured 4 hrs post last dose by ELISA relative to control; type: functional, organism-based; details: time 4.0 day
[31] = biological target: Protein arginine N-methyltransferase 5 (Homo sapiens) (UniProt O14744); assay: In vivo inhibition of PRMT5 in athymic nude mouse xenografted with human HCT-116 cells harboring wildtype MTAP assessed as decrease in SDMA level in tumor at 100 mg/kg, po administered once daily for 4 days and measured 4 hrs post last dose by ELISA relative to control; type: functional, organism-based; details: time 4.0 day
[32] = biological target: DNA (cytosine-5)-methyltransferase 1 (Homo sapiens) (UniProt P26358); assay: Activation of human DNMT1 at 10 uM relative to control
HCT-116 [33] = assay: Antitumor activity against human HCT-116 cells harboring wildtype MTAP xenografted in female athymic nude mouse model assessed as tumor growth inhibition at 3 to 100 mg/kg, po administered once daily for 14 days; type: functional, organism-based; details: dose 3-100 mg/kg, time 14.0 day

Sequence of Protein arginine N-methyltransferase 5 (Homo sapiens) (O14744 whole entry): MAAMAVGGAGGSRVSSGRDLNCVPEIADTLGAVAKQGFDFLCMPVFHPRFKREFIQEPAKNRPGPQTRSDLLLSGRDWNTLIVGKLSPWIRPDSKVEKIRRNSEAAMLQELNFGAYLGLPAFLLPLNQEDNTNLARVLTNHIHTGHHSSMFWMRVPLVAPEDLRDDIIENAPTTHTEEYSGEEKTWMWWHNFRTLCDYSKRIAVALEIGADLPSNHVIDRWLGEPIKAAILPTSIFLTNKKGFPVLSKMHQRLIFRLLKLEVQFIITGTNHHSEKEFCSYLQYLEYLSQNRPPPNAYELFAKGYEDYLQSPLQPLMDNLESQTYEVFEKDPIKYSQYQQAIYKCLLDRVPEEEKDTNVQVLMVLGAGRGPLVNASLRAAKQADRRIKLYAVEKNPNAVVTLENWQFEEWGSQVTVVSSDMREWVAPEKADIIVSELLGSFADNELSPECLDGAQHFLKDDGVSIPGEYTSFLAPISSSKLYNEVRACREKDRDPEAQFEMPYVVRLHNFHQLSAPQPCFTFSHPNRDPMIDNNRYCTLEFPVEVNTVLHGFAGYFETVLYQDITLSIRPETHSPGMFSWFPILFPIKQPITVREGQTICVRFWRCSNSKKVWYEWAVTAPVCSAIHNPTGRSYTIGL
T1 sequence (Q12809 whole entry): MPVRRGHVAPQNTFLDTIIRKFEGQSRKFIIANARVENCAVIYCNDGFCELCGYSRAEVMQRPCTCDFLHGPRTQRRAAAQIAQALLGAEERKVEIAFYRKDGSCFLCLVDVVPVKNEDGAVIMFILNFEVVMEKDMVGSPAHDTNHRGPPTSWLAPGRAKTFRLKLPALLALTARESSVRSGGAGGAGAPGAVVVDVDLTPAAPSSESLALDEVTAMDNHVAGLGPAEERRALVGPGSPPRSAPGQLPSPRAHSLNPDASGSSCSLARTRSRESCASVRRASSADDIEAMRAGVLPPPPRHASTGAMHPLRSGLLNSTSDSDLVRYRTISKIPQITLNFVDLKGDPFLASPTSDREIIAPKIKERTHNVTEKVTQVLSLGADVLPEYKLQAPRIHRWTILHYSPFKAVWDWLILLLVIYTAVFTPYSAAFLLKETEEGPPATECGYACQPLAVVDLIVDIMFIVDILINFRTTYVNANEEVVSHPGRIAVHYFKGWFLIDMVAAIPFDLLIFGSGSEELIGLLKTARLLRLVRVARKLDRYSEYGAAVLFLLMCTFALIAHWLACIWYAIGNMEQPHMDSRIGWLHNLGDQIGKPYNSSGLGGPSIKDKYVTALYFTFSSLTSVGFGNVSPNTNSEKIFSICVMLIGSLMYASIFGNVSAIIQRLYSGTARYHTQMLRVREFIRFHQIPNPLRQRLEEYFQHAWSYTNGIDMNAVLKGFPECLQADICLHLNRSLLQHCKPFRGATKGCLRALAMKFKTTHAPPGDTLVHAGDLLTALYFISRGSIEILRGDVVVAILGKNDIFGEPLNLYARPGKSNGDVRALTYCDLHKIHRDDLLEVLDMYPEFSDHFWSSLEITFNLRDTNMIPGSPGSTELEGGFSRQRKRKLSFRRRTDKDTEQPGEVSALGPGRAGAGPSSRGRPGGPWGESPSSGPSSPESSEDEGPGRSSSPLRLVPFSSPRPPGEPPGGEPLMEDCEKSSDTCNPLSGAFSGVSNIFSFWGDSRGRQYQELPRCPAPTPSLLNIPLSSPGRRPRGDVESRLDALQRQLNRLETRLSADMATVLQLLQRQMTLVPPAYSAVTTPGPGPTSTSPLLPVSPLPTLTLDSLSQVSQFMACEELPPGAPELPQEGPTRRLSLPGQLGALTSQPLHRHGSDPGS
Sequence of Cytochrome P450 2D6 (P10635 whole entry): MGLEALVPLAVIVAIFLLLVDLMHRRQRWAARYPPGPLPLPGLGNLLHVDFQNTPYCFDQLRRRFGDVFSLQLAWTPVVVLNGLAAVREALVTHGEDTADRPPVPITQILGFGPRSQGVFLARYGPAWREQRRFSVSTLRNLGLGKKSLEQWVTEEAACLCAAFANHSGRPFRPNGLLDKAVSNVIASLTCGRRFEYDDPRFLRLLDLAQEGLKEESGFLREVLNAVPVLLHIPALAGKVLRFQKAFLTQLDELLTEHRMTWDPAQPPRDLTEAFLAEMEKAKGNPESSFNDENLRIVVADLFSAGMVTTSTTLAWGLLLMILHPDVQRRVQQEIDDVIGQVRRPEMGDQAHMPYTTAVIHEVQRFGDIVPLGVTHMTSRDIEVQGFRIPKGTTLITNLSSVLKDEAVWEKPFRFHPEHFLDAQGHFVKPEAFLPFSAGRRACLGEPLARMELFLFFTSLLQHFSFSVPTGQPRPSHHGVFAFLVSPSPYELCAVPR
Sequence of DNA (cytosine-5)-methyltransferase 1 (Homo sapiens) (P26358 whole entry): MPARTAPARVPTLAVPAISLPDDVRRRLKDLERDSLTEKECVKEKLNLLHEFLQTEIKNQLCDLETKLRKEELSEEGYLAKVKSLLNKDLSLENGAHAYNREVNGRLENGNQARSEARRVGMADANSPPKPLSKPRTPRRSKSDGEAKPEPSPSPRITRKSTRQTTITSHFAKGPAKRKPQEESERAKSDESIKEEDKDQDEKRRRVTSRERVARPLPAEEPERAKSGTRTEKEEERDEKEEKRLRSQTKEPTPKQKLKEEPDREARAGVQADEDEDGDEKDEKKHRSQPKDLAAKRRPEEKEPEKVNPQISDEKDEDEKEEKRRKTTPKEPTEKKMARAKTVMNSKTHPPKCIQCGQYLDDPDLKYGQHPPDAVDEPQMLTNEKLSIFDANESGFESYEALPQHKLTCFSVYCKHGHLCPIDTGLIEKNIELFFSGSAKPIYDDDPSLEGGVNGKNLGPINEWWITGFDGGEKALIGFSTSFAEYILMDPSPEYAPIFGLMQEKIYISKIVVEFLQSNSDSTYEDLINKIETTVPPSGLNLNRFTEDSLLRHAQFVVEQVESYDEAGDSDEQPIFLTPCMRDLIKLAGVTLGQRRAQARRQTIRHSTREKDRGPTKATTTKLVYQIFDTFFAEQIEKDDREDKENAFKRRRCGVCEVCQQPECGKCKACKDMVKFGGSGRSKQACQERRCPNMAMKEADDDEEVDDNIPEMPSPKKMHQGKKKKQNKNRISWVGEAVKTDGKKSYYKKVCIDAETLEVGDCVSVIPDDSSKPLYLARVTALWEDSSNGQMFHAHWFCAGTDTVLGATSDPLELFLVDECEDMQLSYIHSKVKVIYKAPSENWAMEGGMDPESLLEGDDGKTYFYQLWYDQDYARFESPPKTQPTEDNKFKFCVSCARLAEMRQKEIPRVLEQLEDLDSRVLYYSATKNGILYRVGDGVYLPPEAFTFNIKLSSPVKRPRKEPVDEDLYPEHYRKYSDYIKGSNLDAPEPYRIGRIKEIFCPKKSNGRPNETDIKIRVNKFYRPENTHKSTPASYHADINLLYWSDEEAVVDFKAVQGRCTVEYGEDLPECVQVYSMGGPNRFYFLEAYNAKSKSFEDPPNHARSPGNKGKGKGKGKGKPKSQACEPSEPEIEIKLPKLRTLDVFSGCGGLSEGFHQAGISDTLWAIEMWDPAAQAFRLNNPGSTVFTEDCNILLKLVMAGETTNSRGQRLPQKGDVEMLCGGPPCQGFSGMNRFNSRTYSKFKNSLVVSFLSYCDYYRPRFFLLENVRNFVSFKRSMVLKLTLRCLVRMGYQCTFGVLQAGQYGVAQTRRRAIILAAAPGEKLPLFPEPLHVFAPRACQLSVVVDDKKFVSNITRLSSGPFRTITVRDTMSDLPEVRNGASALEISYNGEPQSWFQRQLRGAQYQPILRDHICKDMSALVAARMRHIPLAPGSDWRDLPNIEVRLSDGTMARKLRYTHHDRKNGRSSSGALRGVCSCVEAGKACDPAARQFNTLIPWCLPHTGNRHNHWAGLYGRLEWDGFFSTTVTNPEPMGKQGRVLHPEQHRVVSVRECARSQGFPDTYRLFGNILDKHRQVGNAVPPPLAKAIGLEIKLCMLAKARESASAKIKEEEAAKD
Sequence of Cytochrome P450 3A4 (P08684 whole entry): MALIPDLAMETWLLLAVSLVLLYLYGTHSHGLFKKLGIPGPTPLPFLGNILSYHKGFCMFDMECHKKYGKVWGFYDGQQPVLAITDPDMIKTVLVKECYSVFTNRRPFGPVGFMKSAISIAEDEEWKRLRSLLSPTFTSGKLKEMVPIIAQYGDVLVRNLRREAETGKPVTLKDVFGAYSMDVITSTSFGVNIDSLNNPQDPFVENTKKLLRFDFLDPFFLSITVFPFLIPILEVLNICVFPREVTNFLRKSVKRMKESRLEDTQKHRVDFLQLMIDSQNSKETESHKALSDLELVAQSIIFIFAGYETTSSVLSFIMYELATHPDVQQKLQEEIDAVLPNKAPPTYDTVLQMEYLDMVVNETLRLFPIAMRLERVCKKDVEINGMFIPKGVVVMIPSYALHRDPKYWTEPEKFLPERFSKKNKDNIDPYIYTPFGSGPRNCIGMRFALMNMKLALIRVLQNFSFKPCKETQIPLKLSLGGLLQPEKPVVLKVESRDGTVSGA

- pIC50 (BXPC-3 [1]): 6.66
- microsomal CLint at 0.5 µM [4]: 37 µL/min/mg
- inhibition [5]: 48%
- inhibition [6]: 72%
- microsomal CLint at 0.5 µM [7]: 123 µL/min/mg
- microsomal CLint at 0.5 µM [8]: 24 µL/min/mg
- Kp uu [9]: 0.2
- pIC50 (Cytochrome P450 3A4): 3.91
- Kp uu [10]: 0.15
- pIC50 (Cytochrome P450 2D6): 3.93
- Kp uu [11]: 0.14
- hepatocyte CLint [12]: 6 µL/min/1e6 cells
- solubility [14]: 257 µM (≈ 114 µg/mL)
- Drug uptake [15]: Active
- Kp uu [16]: 0.15
- pIC50 (HCT-116 [17]): 5.36
- fraction unbound [18]: 0.11
- hepatocyte CLint [21]: 31 µL/min/1e6 cells
- fraction unbound [22]: 0.08
- solubility [23]: 335 µM (≈ 149 µg/mL)
- inhibition [24]: 77%
- hepatocyte CLint [26]: 5 µL/min/1e6 cells
- clearance [28]: 28.3 mL/min/kg
- inhibition [29]: 69%
- inhibition [30]: 32%
- inhibition [31]: 79%
- Activity [32]: 32%
SMILES: Nc1nc2cnc(C(=O)N3CCOC[C@@H]3c3ccc(C(F)(F)F)cc3)cc2c2c1COC2
- inhibition in vivo at 100 mg/kg (BXPC-3 [2]): 96%
- inhibition in vivo at 10 mg/kg (BXPC-3 [3]): 19%
- inhibition in vivo at 100 mg/kg (HCT-116 [13]): 87%
- inhibition in vivo at 10 mg/kg (HCT-116 [19]): 55%
- pIC50 [20]: < 4.52
- inhibition in vivo at 3 mg/kg (HCT-116 [25]): 54%
- pIC50 [27]: < 4.54
- Activity (HCT-116 [33]): inactive
